# According to patent US20140349314A1, “METHODS AND COMPOSITIONS FOR DETECTING AND TREATING INFLAMMATORY DISEASE” (Beth Israel Deaconess Medical Center, Inc., priority 2010, published 2014):
# Where a SMILES comes first, the peptide text is derived from it. The star is where a group is joined. Cbz = O=C(OCc1ccccc1)*
# How the values were obtained:
# [1] = system: TGFβ1 (5 ng/mL)-activated HSC; assay: Fibrosis-related transcript levels in TGFβ1-activated HSC incubated with S100-MP; type: cell-based, human; settings: 5 ng/mL TGFβ1
# Experimental: FIG. 9 is a series of graphs showing mRNA transcript levels of the indicated gene in TGFβ1 (5 ng/mL)-activated HSC when incubated with the indicated amount of S100-MP for 24 hours. All experiments were performed at least twice with n=3-4 per group. Results (means±SD) are expressed as arbitrary units relative to beta2-microglobulin mRNA; *p<0.05 vs. medium control.
# Human HSC were exposed to 5 ng/mL TGFβ1, which elicits a strong fibrogenic response. […] Thus TGFβ1 enhanced HSC procollagen α1(I) expression 2.7-fold, which after MP addition was reduced by almost 40%, and MP increased the expression of MMP-3 and MMP-13 almost 2.5- and 2.1-fold, respectively.
# HSC (200×10^3/well) were seeded into six-well cell culture plates and serum-starved as above. HSC were then incubated with 1×10^3 or 50×10^3 S10-MP or S100-MP for 24 hours, followed by total RNA extraction from cells using TRIzol (Invitrogen, Carlsbad, Calif.). One μg of RNA was reverse-transcribed using random primers and Superscript RNase H-reverse transcriptase (Invitrogen). […] Relative transcript levels were quantified by real-time RT-PCR on a LightCycler 1.5 instrument (Roche, Mannheim, Germany) using the TaqMan methodology as described previously (52). […] Experiments were performed in triplicates and values represent means±SD, being expressed as arbitrary units relative to the housekeeping gene beta2-microglobulin.
# HSC [2] = assay: MMP transcript levels in HSC after S100-MP with or without TNFα; type: cell-based, human
# Experimental: FIG. 13C is a graph showing mRNA transcript levels of the indicated MMP gene in HSC after addition of S100-MP with or without TNFα (10 ng/mL) for 24 h (*p<0.05, **p=0.04, ***p=0.001).
# It remained to be shown what cell membrane molecule(s) or receptor(s) mediate(s) attachment and uptake of S100-MP by HSC. […] Assuming that ICAM-1 on the recipient HSC is engaged by CD11a/CD18 on the S100-MP, any treatment of HSC that increases CD54 should enhance MP uptake and subsequent fibrolytic activation of HSC. We therefore incubated HSC with 10 ng/mL TNF-α, a strong inducer of CD54, which induced a robust (>10-fold) upregulation of CD54 after 24 hrs (FIG. 13B). This led to a further significant MP-induced increase (by 40%) of MMP-3 mRNA expression in the induced HSC as compared to untreated HSC (FIG. 13C). […] For MMP-3 the effect of combined TNF-α and MP treatment was overadditive as compared to the added effects of TNF-α or S100-MP alone (FIG. 13C).
# CD54 (ICAM-1) on HSC = assay: ICAM-1 (CD54) upregulation on HSC by TNFα (flow cytometry); type: cell-based, human
# Experimental: TNFα (PEPROTECH®, Rocky Hill, N.J., USA) was added to HSC cultures, and ICAM-1 expression assessed after 2, 4 and 24 hrs by flow cytometric analysis using anti-ICAM-1-FITC (eBioscience™, San Diego, Calif., USA) on a LSR2 FACS analyzer as described above.
# [3] = system: human LX-2 hepatic stellate cells (HSC); assay: Fibrosis-related transcript levels by quantitative RT-PCR in LX-2 HSC incubated with T cell-derived MP; type: cell-based; settings: 24 hours
# Experimental: Effect of S100 T Cell-MP on Fibrosis-Related Gene Expression by HSC Fibrosis related transcripts were measured from 200×10^3 serum-starved human LX-2 HSC 24 hours after addition of 1×10^3 or 50×10^3 S100-MP from Jurkat T cells using quantitative RT-PCR. S10-MP, plain medium, and ST alone served as controls. MP were obtained from PHA-activated and/or apoptotic (ST-treated) Jurkat T cells. After T cell apoptosis induction, significant changes in fibrosis-related transcripts were found with 50×10^3 S100-MP, while equivalent amounts of S10-MP had no effect (FIG. 6). […] Similar results were obtained when S100-MP were incubated with freshly isolated primary rat HSC. Here the human S100-MP induced MMP-3 even 9-fold (FIG. 7).
# For induction of apoptosis T cells were cultured in RPMI and treated with 4 μM/mL Staurosporine (ST, Cell Signaling Technology®, Danvers, Mass.) for 4 hours. […]
# HSC (200×10^3/well) were seeded into six-well cell culture plates and serum-starved as above. […] Relative transcript levels were quantified by real-time RT-PCR on a LightCycler 1.5 instrument (Roche, Mannheim, Germany) using the TaqMan methodology as described previously (52). […] Experiments were performed in triplicates and values represent means±SD, being expressed as arbitrary units relative to the housekeeping gene beta2-microglobulin.
# HSC [4] = assay: Apoptosis assay (Annexin V / 7-AAD FACS) in HSC; type: cell-based, human
# Experimental: It was reported earlier that MP derived from macrophages could trigger apoptosis in recipient cells.
# 24 hrs serum-starved HSC were incubated with S100-MP for 24 hrs. Apoptosis and necrosis induction by S100-MP were assessed by FACS analysis for Annexin V and 7-aminoactinomycin D staining (both from eBioscience™, San Diego, Calif., USA) on a LSR2 FACS analyzer with CELLQuest software (Becton Dickinson, San Jose, Calif.).
# [5] = system: MP-stimulated MMP-3 mRNA expression in HSC; assay: Signaling pathway inhibition: MP-stimulated MMP-3 mRNA expression in HSC; type: cell-based, human; settings: for inhibition of MP-stimulated MMP-3 induction: vs untreated S100-MP stimulated controls, SB 5 μg/mL, MG 15 μg/mL
# Experimental: In order to define major signaling pathways that lead to MMP-induction by S100-MP, we used specific inhibitors of several kinases. MP-stimulated MMP-3 mRNA expression served as fibrolytic read-out.
# Pathway inhibition experiments were performed in 24 hour serum-starved HSC. […] The proteasome inhibitor MG132 (Rockland Inc., USA) was used to block NFκB nuclear translocation and activity.
compound,measurement,setting,value
TGFβ1: profibrogenic cytokine used to activate HSC,enhancement of HSC procollagen α1(I) expression,[1],2.7 fold
TNF-α,further MP-induced increase of MMP-3 mRNA in TNF-α-induced HSC as compared to untreated HSC,"HSC [2]; TNF-α 10 ng/mL plus S100-MP, 24 h",40%
same,effect of TNF-α alone on HSC MMP-3 mRNA,HSC [2]; TNF-α alone,not capable to enhance
same,effect of TNF-α alone on HSC MMP-9 and MMP-13 expression,HSC [2]; TNF-α alone,modestly induced
same,effect of combined TNF-α and MP treatment on MMP-3 compared to added single effects,HSC [2]; TNF-α plus S100-MP,overadditive
same,upregulation of CD54 on HSC,"CD54 (ICAM-1) on HSC; 10 ng/mL TNF-α, after 24 hrs",> 10 fold
same,upregulation of CD54 on HSC,"CD54 (ICAM-1) on HSC; TNFα 10 ng/mL for 0, 4, and 24 hours",40%
"CN[C@@H]1C[C@H]2O[C@@](C)([C@@H]1OC)n1c3ccccc3c3c4c(c5c6ccccc6n2c5c31)C(=O)NC4 [ST, staurosporine]","effect on fibrosis-related gene expression (MMPs, TIMP-1, procollagen α1(I)) in HSC, in words",[3],induced only MMP-9
same,"apoptosis or necrosis induction in HSC, in words","HSC [4]; 24 hours of incubation, ST 0.04 μM/mL",induced apoptosis
same,late apoptosis of HSC,"HSC [4]; 24 hours, ST alone",≤ 10%
same,necrosis of HSC,"HSC [4]; 24 hours, ST alone",up to 14%
same,higher percentage of late apoptotic HSC compared to S100-MP,"HSC [4]; ST 0.04 μM/mL, 7-AAD/Annexin FACS",7 fold
N#CC(=C(/N)Sc1ccccc1N)/C(C#N)=C(\N)Sc1ccccc1N [U0126],"effect on MP-stimulated MMP-3 mRNA, in words",[5],Complete abrogation
C[S+]([O-])c1ccc(-c2nc(-c3ccncc3)c(-c3ccc(F)cc3)[nH]2)cc1 (stereo not drawn) [SB203580],inhibition of MP-stimulated MMP-3 induction,[5],50%
CC(C)C[C@@H](C=O)NC(=O)[C@H](CC(C)C)NC(=O)[C@H](CC(C)C)NC(=O)OCc1ccccc1 [MG132] (Cbz-Leu-Leu-Leu-aldehyde),inhibition of MP-stimulated MMP-3 induction,[5],50%
